PMC9379334, “Determination of ceftriaxone in human plasma using liquid chromatography–tandem mass spectrometry” (Wellcome Open Research, 2022)
Read-outs that look alike come from different tables or passages of the source.

Legend:
[1] = Stability of ceftriaxone in spiked human plasma under different storage conditions (LC-MS/MS); format: physicochemical; conditions: for Stability, Precipitated 4hrs in RT: protein precipitated; for Stability in plasma, F/T cycle 5 / Stability in plasma, F/T cycle 3: freeze -80°C/thaw RT; for Stability in plasma, RT 24 hrs / Stability in plasma, RT 48 hrs: RT about 23°C
Description: (§1) Stock solution 10 mg/ml was evaluated at -80°C and at +4°C for 5 days, and in room temperature (+24°C) for 8 hrs. The lowest concentration of working solution 50 µg/ml was also evaluated at -80°C for 5 days and at room temperature (24°C) for 5 hrs. Spiked plasma stored at ambient temperature and at 4°C for 48 h was used to evaluate short-term stability. Long-term stability of spiked samples at -80°C was evaluated after 7 months. Freeze-thaw stability was evaluated for plasma samples and haemolysed plasma samples for five cycles. The samples were stored at -80°C for 24 h followed by unassisted thawing at room temperature for 2–3 h and subsequent re-freezing at -80°C. The stability of precipitated samples stored at ambient temperature (about 23°C) for 4 h was also evaluated. The stability of extracted samples in the LC autosampler kept at 10°C was evaluated by re-injecting the calibrators and QC samples 65 h after initial injection. The acceptance criteria for stability was achieved when the RSD of stability samples was below ±15%, and the accuracy of mean concentrations was within ±15% of nominal concentration.
(§2) The stability samples were quantified using a calibration curve in CPD plasma. Stability samples in CPD plasma were compared to the average measured concentration of CPD QC samples added in the same run. The CPD calibration curve was also used to quantify heparin and EDTA stability samples due to limited supply of volunteer donor blood. However, since EDTA and heparin have different recovery from plasma compared to CPD, a direct comparison would be biased. Thus, stability samples were instead compared with the average measured concentration of the precision and accuracy of each anticoagulant.

[2] = Stability of extracted samples in the LC autosampler at 10°C; format: physicochemical, human
[3] = cited from earlier work
[4] = cited from earlier work; remark: listed apart in the source
[5] = Stability of ceftriaxone stock and working solutions; conditions: for Stock solution stability: stock solution 10 mg/ml in water; for Working solution stability: weakest working solution 50 µg/ml
Description: as §1, §2

[6] = Stability of ceftriaxone in acidic (pH about 2) and neutral pH dilutions; conditions: +4°C
[7] = QC1, 2.97 µg/ml, CPD haemolysis plasma
[8] = QC1, 2.97 µg/ml, CPD plasma, vs average measured CPD QC concentration in same run
[9] = QC1, 2.97 µg/ml, EDTA plasma, vs average of four precision and accuracy batches
[10] = QC1, 2.97 µg/ml, EDTA plasma, vs average of four precision and accuracy batches for this anticoagulant
[11] = QC1, 2.97 µg/ml, Li-heparin plasma, vs average of four precision and accuracy batches
[12] = QC1, 2.97 µg/ml, Na-heparin haemolysis plasma
[13] = QC1, 2.97 µg/ml, Na-heparin plasma, vs average of four precision and accuracy batches
[14] = QC3, 155 µg/ml, CPD haemolysis plasma
[15] = QC3, 155 µg/ml, CPD plasma, vs average measured CPD QC concentration in same run
[16] = QC3, 155 µg/ml, EDTA plasma, vs average of four precision and accuracy batches
[17] = QC3, 155 µg/ml, Li-heparin plasma, vs average of four precision and accuracy batches
[18] = QC3, 155 µg/ml, Na-heparin haemolysis plasma
[19] = QC3, 155 µg/ml, Na-heparin plasma, vs average of four precision and accuracy batches

Compound: CO/N=C(\C(=O)N[C@@H]1C(=O)N2C(C(=O)O)=C(CSc3nc(=O)c(=O)[nH]n3C)CS[C@H]12)c1csc(N)n1 [ceftriaxone]
- Stability, Precipitated 4hrs in RT [1, 7]: 99.3%
- Stability in plasma, F/T cycle 5 [1, 7]: 88.4%
- Stability, Precipitated 4hrs in RT [1, 8]: 94.2%
- Stability in plasma, RT 24 hrs [1, 8]: 106%
- Stability in plasma, RT 48 hrs [1, 8]: 100%
- Stability in plasma, F/T cycle 3 [1, 8]: 97.7%
- Stability in plasma, F/T cycle 5 [1, 8]: 94.0%
- Stability in plasma, 4°C 24 hrs [1, 8]: 102%
- Stability in plasma, 4°C 48 hrs [1, 8]: 103%
- Stability in plasma, -80°C 224 days [1, 8]: 103%
- Stability, Precipitated 4hrs in RT [1, 9]: 98.0%
- Stability in plasma, RT 24 hrs [1, 10]: 105%
- Stability in plasma, F/T cycle 3 [1, 9]: 103%
- Stability in plasma, F/T cycle 5 [1, 9]: 103%
- Stability in plasma, -80°C 224 days [1, 9]: 95.5%
- Stability in plasma, 4°C 24 hrs [1, 10]: 113%
- Stability, Precipitated 4hrs in RT [1, 11]: 103%
- Stability in plasma, RT 24 hrs ([1]; QC1, 2.97 µg/ml, Li-heparin plasma, vs average of four precision and accuracy batches for this anticoagulant): 105%
- Stability in plasma, F/T cycle 3 [1, 11]: 95.7%
- Stability in plasma, F/T cycle 5 [1, 11]: 99.5%
- Stability in plasma, 4°C 24 hrs [1, 11]: 98.3%
- Stability in plasma, -80°C 224 days [1, 11]: 96.0%
- Stability, Precipitated 4hrs in RT [1, 12]: 91.9%
- Stability in plasma, F/T cycle 3 [1, 12]: 91.3%
- Stability in plasma, F/T cycle 5 [1, 12]: 97.6%
- Stability, Precipitated 4hrs in RT [1, 13]: 96.8%
- Stability in plasma, RT 24 hrs ([1]; QC1, 2.97 µg/ml, Na-heparin plasma, vs average of four precision and accuracy batches for this anticoagulant): 103%
- Stability in plasma, F/T cycle 3 [1, 13]: 100%
- Stability in plasma, F/T cycle 5 [1, 13]: 98.7%
- Stability in plasma, 4°C 24 hrs [1, 13]: 109%
- Stability in plasma, -80°C 224 days [1, 13]: 93.7%
- Stability, Precipitated 4hrs in RT [1, 14]: 94.3%
- Stability in plasma, F/T cycle 5 [1, 14]: 98.6%
- Stability, Precipitated 4hrs in RT [1, 15]: 101%
- Stability in plasma, RT 24 hrs [1, 15]: 99.8%
- Stability in plasma, RT 48 hrs [1, 15]: 99.6%
- Stability in plasma, F/T cycle 3 [1, 15]: 99.1%
- Stability in plasma, F/T cycle 5 [1, 15]: 95.0%
- Stability in plasma, 4°C 24 hrs [1, 15]: 101%
- Stability in plasma, -80°C 224 days [1, 15]: 109%
- Stability, Precipitated 4hrs in RT [1, 16]: 90.9%
- Stability in plasma, F/T cycle 3 [1, 16]: 97.9%
- Stability in plasma, F/T cycle 5 [1, 16]: 95.5%
- Stability in plasma, 4°C 24 hrs [1, 16]: 104%
- Stability in plasma, -80°C 224 days [1, 16]: 92.8%
- Stability, Precipitated 4hrs in RT [1, 17]: 91.4%
- Stability in plasma, RT 24 hrs ([1]; QC3, 155 µg/ml, Li-heparin plasma, vs average of four precision and accuracy batches for this anticoagulant): 101%
- Stability in plasma, F/T cycle 3 [1, 17]: 96.1%
- Stability in plasma, F/T cycle 5 [1, 17]: 94.2%
- Stability in plasma, 4°C 24 hrs [1, 17]: 108%
- Stability in plasma, -80°C 224 days [1, 17]: 98.8%
- Stability, Precipitated 4hrs in RT [1, 18]: 88.8%
- Stability in plasma, F/T cycle 3 [1, 18]: 90.4%
- Stability in plasma, F/T cycle 5 [1, 18]: 88.5%
- Stability, Precipitated 4hrs in RT [1, 19]: 88.2%
- Stability in plasma, F/T cycle 3 [1, 19]: 97.5%
- Stability in plasma, F/T cycle 5 [1, 19]: 93.7%
- Stability in plasma, 4°C 24 hrs [1, 19]: 106%
- Stability in plasma, -80°C 224 days [1, 19]: 94.5%
- Stability of protein precipitated samples ([1]; ambient temperature (about 23°C) for 4 h prior to transfer to Phree plate): good stability
- Freeze-thaw stability in plasma ([1]; five cycles, QC samples in all anticoagulants, including plasma with moderate haemolysis): good stability
- Short-term stability in plasma ([1]; up to 24 h at ambient temperature (about 23°C) and 4°C in all anticoagulants, CPD plasma up to 48 h): confirmed
- Variation in QC concentrations ([2]; extracted samples in LC autosampler 10°C up to 65 h, full set of calibrators and QC re-injected): less than 10%
- Loss, original injection vs 65-h injection ([2]; extracted samples in LC autosampler 10°C, 65 h): about 20%
- Mean plasma concentration 24 h after administration ([3]; 0.5-g intravenous dose): 5300 ng/mL
- Mean plasma concentration 24 h after administration ([3]; 1-g intravenous dose): 9300 ng/mL
- Mean plasma concentration 24 h after administration ([3]; 2-g intravenous dose): 15100 ng/mL
- Population mean peak levels ([3]; standard 2-g daily dose, critically ill patients with sepsis): below 200 μg/ml
- Degradation ([4]; acid hydrolysis with 0.1 M hydrochloric acid, 30 minutes, ref Shrestha et al. 24): 19.6%
- LC-stability ([4]; post-extraction dilution of samples using 0.5% formic acid in water, ref Herrera-Hidalgo et al. 31): 4 h
- Stock solution stability ([5]; +4°C for 5 days): above 98%
- Stock solution stability ([5]; -80°C for 5 days): above 98%
- Stock solution stability ([5]; workbench +24°C for 8 hrs): above 98%
- Working solution stability ([5]; -80°C for 5 days): about 98%
- Working solution stability ([5]; workbench +24°C for 5 hrs): about 98%
- Degradation ([6]; 10 mM ammonium formate containing 2% formic acid (pH about 2), dark, 48 hrs): 95%
- Remaining of initial concentration ([6]; ammonium formate 10 mM with 2% formic acid (pH about 2), 2 days (48 hrs)): 5%
- Remaining of initial concentration ([6]; ammonium formate 10 mM with 2% formic acid (pH about 2), 3 days): less than 1%
- Remaining of initial concentration ([6]; dilutions in solutions with neutral pH, 2 and 3 days): 95–100%
